Measurements published in patent publication US20250186379A1, “METHODS AND AGENTS FOR DECREASING INSULIN RESISTANCE” (Whitehead Institute for Biomedical Research, priority 2021, published 2025).
Entries after “also recorded” stand apart in the source; their conditions may differ. Like-named read-outs stand apart in the source and are kept apart here.

Columns and labels:
[1] = tested on: phosphorylated IRS1 (pIRS1); assay: Imaging of phosphorylated IRS1 in IR condensates in HepG2 cells; type: cell-based, human
Method: HepG2 cells, human liver spheroids, human primary adipocytes and human tissue liver sections were fixed in 4% PFA (VWR, BT140770-10X10) in PBS (Life Technologies, AM9625) for 10 minutes at room temperature. Cells were washed three times for 5 minutes in PBS, permeabilized with 0.5% TritonX100 (Sigma Aldrich, X100) in PBS, washed three times for 5 minutes in PBS, and then blocked with 4% IgG-free BSA (VWR, 102643-516) for 15-60 minutes at room temperature. Afterwards, the cells were incubated with 1:500 or 1:1000 primary antibody (specific antibodies listed below) in 4% IgG-free BSA in PBS at 4° C. overnight. […]
To quantify pIRS1 fluorescent signal in IR puncta/condensates manually, Airyscan images were opened on Fiji as composite images. A circle or an oval was drawn around IR puncta using the oval selection tool and the average fluorescence intensity of pIRS1 in the circle or oval (=in the puncta/condensates) was determined using the measure tool on Fiji.
To quantify pIRS1 fluorescent signal in IR puncta/condensates computationally using Fiji, 3D object counter tool was used. […] 3D object counter tool then determined the intensity pIRS1 channel in the identified IR puncta. pIRS1 signal intensity was then background subtracted by a threshold determined by averaging the background intensity in a rectangular region outside of the cells.

[2] = tested on: lipogenic and gluconeogenesis genes (FASN, PCK1); assay: Expression of lipogenic and gluconeogenesis genes (RNA-seq, RT-qPCR) in HepG2 cells; type: cell-based, human
Method: RNA was extracted using TRIzol™ reagent (Thermo Fisher Scientific, 15596026) following the manufacturer's instructions. cDNA synthesis was performed using qScript cDNA Supermix (QuantaBio, 95048-500) according to the manufacturer's instructions, using 1000 ng RNA as starting material.
qPCR was performed on a Thermo Fisher Scientific QuantStudio 6 machine using Fast SYBR™ Green Master Mix (Thermo Fisher, 4385618) and primers (listed below) according to the manufacturer's instructions. Expression data is presented after calculating the relative expression compared with the housekeeping gene RPLP0, using the equation Relative Quantification (RQ)=100/(2^(Target Gene Ct—RPLP0 Ct). When data is reported relative to a sample condition, the condition of reference was set as 1 and the data of the other conditions were reported as a ratio (condition/condition of reference).
RNA sequencing was performed by the Whitehead Institute Genome Technology Core. Libraries were prepared using the KAPA HyperPrep stranded RNA kit (Roche, KK8540) following manufacturer's instructions. Samples were sequenced on a HiSeq2500 in High-Output mode generating 50 bases, single-end reads.
RNA-sequencing (RNA-seq) bioinformatics analysis was performed on the Whitehead High-Performance Computing Facility using the nf-core RNA-seq pipeline v1.4.2^13 with Nextflow v20.04.1. Quality control of .fastq files was performed with FastQC v0.11.8. The reads were single-end and the strandedness was set to reverse. Low quality sequences were trimmed using Trim Galore!v0.6.4. Alignment was performed against the hg19 genome assembly using STAR v2.6.1d^17 and duplicates were marked using Picard MarkDuplicates v2.21.1. Quantification of transcripts was performed using featureCounts v1.6.4^18. Differential expression analysis was performed using edgeR v3.26.5^19. deepTools v3.3.1^20, dupRadar v1.14.0^21, Qualimap v.2.2.2-dev^22, and MultiQC v1.7 were used for quality control. […]

IR condensates = assay: Immunofluorescence for IR in human liver tissue from donors; type: in vivo; conditions: liver tissue of donors with T2D treated with metformin vs T2D and healthy donors
Description: (§1) Images were then processed using Fiji/ImageJ v2.1.0/153c.
as §1

[3] = cited from earlier work
[4] = insulin-sensitive HepG2 cells, 3 nM insulin 4 hours

insulin: insulin (Sigma Aldrich, I9278-5ML) used for acute stimulation and chronic physiological or pathological exposure
intensity of pIRS1 at IR condensates ([1]; insulin-sensitive HepG2 cells, 3 nM insulin 5 min (FIG. 17F)): increased | expression of the lipogenic gene FASN after insulin stimulation ([2]; cells exposed to pathologic levels (3 nM) of insulin for two days): unchanged | expression of gluconeogenesis genes [2, 4]: downregulation of gluconeogenesis genes | expression of lipogenic genes [2, 4]: upregulation of lipogenic genes

CN(C)C(=N)N=C(N)N [metformin, reference compound]
IR signal in condensates/puncta of hepatocytes (IR condensates): increased IR signals in condensates that approximated those seen in tissue from healthy donors; also recorded: IR punctate signals similar to those observed in healthy tissues | levels of phosphorylated IRS1 in IR-containing condensates ([1]; insulin-resistant cells + metformin, 3 nM insulin 5 min (FIG. 18C)): partially rescued | concentration of metformin in the plasma of T2D patients ([3]; T2D patients (Example 1)): ~12.5 µM | concentration of metformin in the plasma of T2D patients ([3]; T2D patients (Example 2, refs 58-60)): ~12.5 µM
